Biological target: T1, Sodium/glucose cotransporter 2 (Homo sapiens, UniProt P31639)
T1 sequence (P31639 whole entry): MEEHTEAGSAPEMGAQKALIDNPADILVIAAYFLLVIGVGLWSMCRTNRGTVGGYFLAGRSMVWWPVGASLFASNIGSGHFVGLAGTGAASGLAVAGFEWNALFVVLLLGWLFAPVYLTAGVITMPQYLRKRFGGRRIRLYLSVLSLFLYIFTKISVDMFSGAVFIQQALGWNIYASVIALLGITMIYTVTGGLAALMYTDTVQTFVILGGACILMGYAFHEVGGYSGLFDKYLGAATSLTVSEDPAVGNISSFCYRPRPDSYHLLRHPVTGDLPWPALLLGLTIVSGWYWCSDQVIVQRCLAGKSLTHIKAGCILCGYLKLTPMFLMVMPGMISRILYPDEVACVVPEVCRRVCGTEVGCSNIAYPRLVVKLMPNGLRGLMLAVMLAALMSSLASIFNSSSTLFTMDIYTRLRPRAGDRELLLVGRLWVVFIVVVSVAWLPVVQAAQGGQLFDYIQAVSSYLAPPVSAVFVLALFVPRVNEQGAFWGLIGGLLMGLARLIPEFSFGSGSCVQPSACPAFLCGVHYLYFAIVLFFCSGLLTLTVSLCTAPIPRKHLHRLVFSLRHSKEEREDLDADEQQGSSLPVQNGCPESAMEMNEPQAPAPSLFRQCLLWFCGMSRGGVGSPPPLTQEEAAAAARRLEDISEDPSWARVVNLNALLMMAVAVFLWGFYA
Experiment: In Vitro Human SGLT2 Inhibition Assay: Human sodium/glucose co-transporter type 2 (SGLT2; accession number P31639; GI:400337) was cloned into pIRESpuro2 vector for mammalian expression (construct: HA-SGLT2-pIRESpuro2). HEK293 cells were transfected with the human HA-SGLT2-pIRESpuro2 vector and the bulk stable cell line was selected in presence of 0.5 μg/mL of puromycin. Human HA-SGLT2 cells were maintained in DMEM media containing 10% FBS, 1% GPS and 0.5 μg/mL of puromycin. The HEK293 cells expressing the human HA-SGLT2 were seeded in 384 well plates (30,000 cells/well) in DMEM media containing 10% FBS, 1% GPS and 0.5 μg/mL of puromycin, then incubated overnight at 37 C, 5% CO2. Cells were then washed with uptake buffer (140 mM NaCl, 2 mM KCl, 1 mM CaCl2, 1 mM MgCl2, 10 mM HEPES, 5 mM Tris, 1 mg/mL bovine serum albumin (BSA), pH 7.3). Twenty microliters of uptake buffer with or without testing compounds were added to the cells. Then, 20 microliters of uptake buffer containing 14C-AMG (100 nCi) were added to the cells. The cell plates were incubated at 37° C., 5% CO2 for 1-2 hours. After washing the cells with uptake buffer, scintillation fluid was added (40 microliters/well) and 14C-AMG uptake was measured by counting radioactivity using a scintillation coulter ([…]; Packard Instruments).

SMILES: CS[C@H]1O[C@@H](c2ccc(C)c(Cc3ccc(OCCNC(=O)NC(C)(C)CO)cc3)c2)[C@H](O)[C@@H](O)[C@@H]1O
- IC50: < 10 nM
